Laboratory results reported in ChEMBL document CHEMBL4706515, “Discovery of new [1,2,4] Triazolo[1,5-a]Pyrimidine derivatives that Kill gastric cancer cells via the mitochondria pathway” (Eur J Med Chem, 2020).
Active and inactive are the calls of the source. The rule behind the calls is not given here.

Legend:
MGC-803 [1] = test: Induction of apoptosis in human MGC-803 cells assessed as necrotic cells at 5 uM measure after 24 hrs by Annexin-PI staining based Flowcytometry method (reference value: 3.13%); assay type: functional
SGC-7901 [2] = test: Inhibition of cell proliferation in human SGC-7901 cells at 5 uM measured after 72 hrs by SRB assay; assay type: functional, cell-based
MGC-803 [3] = test: Induction of apoptosis in human MGC-803 cells assessed as increase in accumulation of LC3B-2 measured after 24 hrs by western blot assay; assay type: functional, cell-based
SGC-7901 [4] = test: Induction of apoptosis in human SGC-7901 cells assessed as viable cells at 0.625 uM measure after 24 hrs by Annexin-PI staining based Flowcytometry method (reference value: 94.9%); assay type: functional; conditions: read-out: Activity
MGC-803 [5] = test: Induction of apoptosis in human MGC-803 cells assessed as increase in ROS production at 10 uM measured after 24 hrs by DCHF-DA staining based Flowcytometry method; assay type: functional, cell-based
MGC-803 [6] = test: Induction of mitochondrial membrane potential loss in human MGC-803 cells at 10 uM measured after 24 hrs by JC-1 staining based flow cytometry method (reference value: 0.344%); conditions: Mitochondria
MGC-803 [7] = test: Induction of apoptosis in human MGC-803 cells assessed as necrotic cells at 1.25 uM measure after 24 hrs by Annexin-PI staining based Flowcytometry method (reference value: 3.13%); assay type: functional
MGC-803 [8] = test: Inhibition of cell proliferation in human MGC-803 cells at 5 uM measured by SRB assay; assay type: functional, cell-based; conditions: time 72.0 hrs
MGC-803 [9] = test: Induction of apoptosis in human MGC-803 cells assessed as increase in ROS production at 5 uM measured after 24 hrs by DCHF-DA staining based Flowcytometry method; assay type: functional, cell-based
MGC-803 [10] = test: Induction of apoptosis in human MGC-803 cells assessed as early apoptotic cells at 0.625 uM measure after 24 hrs by Annexin-PI staining based Flowcytometry method (reference value: 9.8%); assay type: functional
MGC-803 [11] = test: Induction of apoptosis in human MGC-803 cells assessed as necrotic cells at 0.625 uM measure after 24 hrs by Annexin-PI staining based Flowcytometry method (reference value: 3.13%); assay type: functional
SGC-7901 [12] = test: Induction of apoptosis in human SGC-7901 cells assessed as early apoptotic cells at 5 uM measure after 24 hrs by Annexin-PI staining based Flowcytometry method (reference value: 2.68%); assay type: functional
MGC-803 [13] = test: Induction of apoptosis in human MGC-803 assessed by cleaved PARP levels incubated for 1 hr with Z-VAD-FMK followed by compound addition measured by western blot assay; assay type: functional, cell-based
A549 = test: Antiproliferative activity against human A549 cells assessed as inhibition of cell growth at measured after 72 hrs by SRB assay; assay type: functional
MGC-803 [14] = test: Antiproliferative activity in human MGC-803 cells assessed as inhibition of cell viability preincubated for 1 hr with NAC followed by compound addition at 5 uM measured after 72 hrs by SRB staining method; assay type: functional, cell-based
MGC-803 [15] = test: Induction of apoptosis in human MGC-803 cells assessed as late apoptotic cells at 0.625 uM measure after 24 hrs by Annexin-PI staining based Flowcytometry method (reference value: 7.06%); assay type: functional
MGC-803 [16] = test: Induction of apoptosis in human MGC-803 cells assessed as late apoptotic cells at 5 uM measure after 24 hrs by Annexin-PI staining based Flowcytometry method (reference value: 7.06%); assay type: functional
SGC-7901 [17] = test: Induction of apoptosis in human SGC-7901 cells assessed as early apoptotic cells at 10 uM measure after 24 hrs by Annexin-PI staining based Flowcytometry method (reference value: 2.68%); assay type: functional
SGC-7901 [18] = test: Induction of apoptosis in human SGC-7901 cells assessed as early apoptotic cells at 2.5 uM measure after 24 hrs by Annexin-PI staining based Flowcytometry method (reference value: 2.68%); assay type: functional
MGC-803 [19] = test: Cytotoxicity against human MGC-803 cells assessed as inhibition of cell viability incubated for 1 hr with Z-VAD-FMK followed by addition of compound; assay type: functional, cell-based
SGC-7901 [20] = test: Induction of apoptosis in human SGC-7901 cells assessed as necrotic cells at 10 uM measure after 24 hrs by Annexin-PI staining based Flowcytometry method (reference value: 1.16%); assay type: functional
MGC-803 [21] = test: Induction of apoptosis in human MGC-803 assessed by cleaved PARP levels incubated for 1 hr with Z-LEHD-FMK followed by compound addition measured by western blot assay; assay type: functional, cell-based
MGC-803 [22] = test: Antiproliferative activity in human MGC-803 cells assessed as inhibition of cell viability preincubated with 3-methyladenine followed by compound addition measured after 24 hrs by SRB staining method; assay type: functional, cell-based
MGC-803 [23] = test: Induction of apoptosis in human MGC-803 cells assessed as early apoptotic cells at 5 uM measure after 24 hrs by Annexin-PI staining based Flowcytometry method (reference value: 9.8%); assay type: functional
MGC-803 [24] = test: Induction of apoptosis in human MGC-803 cells assessed as necrotic cells at 10 uM measure after 24 hrs by Annexin-PI staining based Flowcytometry method (reference value: 3.13%); assay type: functional
MGC-803 [25] = test: Inhibition of cell proliferation in human MGC-803 cells at 10 uM measured by SRB assay; assay type: functional, cell-based; conditions: time 72.0 hrs
SGC-7901 [26] = test: Induction of apoptosis in human SGC-7901 cells assessed as early apoptotic cells at 0.625 uM measure after 24 hrs by Annexin-PI staining based Flowcytometry method (reference value: 2.68%); assay type: functional
MGC-803 [27] = test: Antiproliferative activity against human MGC-803 cells assessed as inhibition of cell growth at 10 uM measured after 72 hrs by SRB assay relative to control; assay type: functional
MGC-803 [28] = test: Induction of mitochondrial membrane potential loss in human MGC-803 cells at 2.5 uM measured after 24 hrs by fluorescence method; conditions: Mitochondria
SGC-7901 [29] = test: Induction of apoptosis in human SGC-7901 cells assessed as viable cells at 5 uM measure after 24 hrs by Annexin-PI staining based Flowcytometry method (reference value: 94.9%); assay type: functional; conditions: read-out: Activity
SGC-7901 [30] = test: Antiproliferative activity against human SGC-7901 cells assessed as inhibition of cell growth at measured after 72 hrs by SRB assay; assay type: functional
SGC-7901 [31] = test: Inhibition of cell proliferation in human SGC-7901 cells at 10 uM measured after 72 hrs by SRB assay; assay type: functional, cell-based
SGC-7901 [32] = test: Induction of apoptosis in human SGC-7901 cells assessed as viable cells at 10 uM measure after 24 hrs by Annexin-PI staining based Flowcytometry method (reference value: 94.9%); assay type: functional; conditions: read-out: Activity
SGC-7901 [33] = test: Induction of apoptosis in human SGC-7901 cells assessed as late apoptotic cells at 10 uM measure after 24 hrs by Annexin-PI staining based Flowcytometry method (reference value: 1.29%); assay type: functional
MGC-803 [34] = test: Induction of apoptosis in human MGC-803 cells assessed as late apoptotic cells at 2.5 uM measure after 24 hrs by Annexin-PI staining based Flowcytometry method (reference value: 7.06%); assay type: functional
MGC-803 [35] = test: Cell cycle arrest in human MGC-803 cells assessed as accumulation of cells in G2/M phase at 5 uM measured after 24 hrs by PI staining based flow cytometry; assay type: functional
SGC-7901 [36] = test: Induction of apoptosis in human SGC-7901 cells assessed as necrotic cells at 2.5 uM measure after 24 hrs by Annexin-PI staining based Flowcytometry method (reference value: 1.16%); assay type: functional

Cc1cc(Nc2ccc(C(=O)/C=C/c3cccc(Br)n3)cc2)n2nc(SCc3nc4ccccc4[nH]3)nc2n1
Activity (MGC-803 [1]): 4.51%
inhibition (SGC-7901 [2]): Active
Activity (MGC-803 [3]): Active
viability at 0.625 µM (SGC-7901 [4]): 94.2%
Activity (MGC-803 [5]): Active
Activity (MGC-803 [6]): 10.7%
Activity (MGC-803 [7]): 2.25%
inhibition (MGC-803 [8]): Active
Activity (MGC-803 [9]): Active
Activity (MGC-803 [10]): 4.92%
Activity (MGC-803 [11]): 1.72%
Activity (SGC-7901 [12]): 16.7%
Activity (MGC-803 [13]): inactive
GI50 (A549): > 10000 nM
inhibition (MGC-803 [14]): inactive
Activity (MGC-803 [15]): 1.81%
Activity (MGC-803 [16]): 15.4%
Activity (SGC-7901 [17]): 8.54%
Activity (SGC-7901 [18]): 5%
inhibition (MGC-803 [19]): inactive
Activity (SGC-7901 [20]): 4.79%
Activity (MGC-803 [21]): inactive
inhibition (MGC-803 [22]): Active
Activity (MGC-803 [23]): 6.25%
Activity (MGC-803 [24]): 8.84%
inhibition (MGC-803 [25]): Active
Activity (SGC-7901 [26]): 2.25%
inhibition at 10 µM (MGC-803 [27]): 94.4%
Activity (MGC-803 [28]): Active
viability at 5 µM (SGC-7901 [29]): 53%
GI50 (SGC-7901 [30]): 640 nM
inhibition (SGC-7901 [31]): Active
viability at 10 µM (SGC-7901 [32]): 23.9%
Activity (SGC-7901 [33]): 62.8%
Activity (MGC-803 [34]): 4.7%
Activity (MGC-803 [35]): Active
Activity (SGC-7901 [36]): 1.15%
